Assay results published in patent publication US20240270821A1, “GIP/GLP1/GCG TRI-RECEPTOR AGONISTS AND USES THEREOF” (priority 2023, published 2024).
Like-named read-outs stand apart in the source and are kept apart here. Starred links: 1 amine or outer side, 2 acyl side, 3 side chain; linkers in the order of their positions; H or OH if unused. Non-standard residues stand in square brackets, D forms with d. Residues, ends and D or L forms follow the SMILES beside them. Groups on a side chain read outwards from the residue. *: point of attachment. C20 diacid = O=C(O)CCCCCCCCCCCCCCCCCCC(=O)*; C18 diacid = O=C(O)CCCCCCCCCCCCCCCCC(=O)*; αMePhe(2-F) = C[C@](N)(Cc1ccccc1F)C(=O)O; γGlu = O=C(O)[C@H](CCC(=O)[*:2])N[*:1]; αMe4Pal = C[C@](N)(Cc1ccncc1)C(=O)O; αMeY = C[C@](N)(Cc1ccc(O)cc1)C(=O)O; 4Pal = N[C@@H](Cc1ccncc1)C(=O)O; αMeL = CC(C)C[C@](C)(N)C(=O)O; Orn = NCCC[C@H](N)C(=O)O; AEEA = NCCOCCOCC(=O)O; Aib = CC(C)(N)C(=O)O

What was measured:
Format in all cases: cell-based
[1] = biological target: hGcgR (Homo sapiens, UniProt P47871); assay: Functional cAMP activation in the presence of 0.1% casein (no HSA); details: geometric mean, read-out: Relative cAMP EC50, hGcgR;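 further: intracellular cAMP rise after 30 min at 37 °C, read by HTRF against a cAMP standard curve, scaled from buffer only (0%) to maximal control ligand response (100%)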
[2] = biological target: T1, hGLP-1R (Homo sapiens, UniProt P43220); assay: Functional cAMP activity in the presence of 1% HSA; details: read-out: cAMP Rel EC50, hGLP-1R
[3] = biological target: T2, hGIPR (Homo sapiens, UniProt P48546); assay: Functional cAMP activation in the presence of 0.1% casein (no HSA); details: geometric mean, read-out: Relative cAMP EC50, hGIPR;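 further: intracellular cAMP rise after 30 min at 37 °C read by HTRF against a standard curve, scaled between buffer alone (0%) and top control ligand concentration (100%), four-parameter fit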
T2 sequence (P48546 22-466): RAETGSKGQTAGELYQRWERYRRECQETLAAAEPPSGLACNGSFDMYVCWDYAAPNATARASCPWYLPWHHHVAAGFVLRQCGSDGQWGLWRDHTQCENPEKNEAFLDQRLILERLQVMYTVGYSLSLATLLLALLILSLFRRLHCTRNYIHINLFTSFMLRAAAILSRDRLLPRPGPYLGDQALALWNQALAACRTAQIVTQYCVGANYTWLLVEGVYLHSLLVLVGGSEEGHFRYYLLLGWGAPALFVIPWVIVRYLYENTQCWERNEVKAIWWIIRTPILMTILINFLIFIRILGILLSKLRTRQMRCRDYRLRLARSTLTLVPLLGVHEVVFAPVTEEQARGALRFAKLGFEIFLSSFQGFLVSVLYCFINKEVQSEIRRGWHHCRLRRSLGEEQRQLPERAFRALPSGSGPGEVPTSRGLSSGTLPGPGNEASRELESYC

[4] = biological target: T1, hGLP-1R; assay: as above; details: geometric mean, read-out: Relative cAMP EC50, hGLP-1R
[5] = biological target: T2, hGIPR; assay: Functional cAMP activity in the presence of 1% HSA; details: read-out: cAMP Rel EC50, hGIPR
[6] = biological target: human GcgR (Homo sapiens, UniProt P47871); assay: Functional cAMP activity in the presence of 1% HSA; details: read-out: cAMP Rel EC50, hGcgR
[7] = in the presence of 0.1% casein (no HSA)
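Wherever Relative cAMP EC50, hGLP-1R is given: intracellular cAMP rise after 30 min at 37 °C read by HTRF, normalized between buffer only (0%) and maximal control ligand (100%), four-parameter variable-slope fit.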

human GcgR, sequence (P47871 26-477): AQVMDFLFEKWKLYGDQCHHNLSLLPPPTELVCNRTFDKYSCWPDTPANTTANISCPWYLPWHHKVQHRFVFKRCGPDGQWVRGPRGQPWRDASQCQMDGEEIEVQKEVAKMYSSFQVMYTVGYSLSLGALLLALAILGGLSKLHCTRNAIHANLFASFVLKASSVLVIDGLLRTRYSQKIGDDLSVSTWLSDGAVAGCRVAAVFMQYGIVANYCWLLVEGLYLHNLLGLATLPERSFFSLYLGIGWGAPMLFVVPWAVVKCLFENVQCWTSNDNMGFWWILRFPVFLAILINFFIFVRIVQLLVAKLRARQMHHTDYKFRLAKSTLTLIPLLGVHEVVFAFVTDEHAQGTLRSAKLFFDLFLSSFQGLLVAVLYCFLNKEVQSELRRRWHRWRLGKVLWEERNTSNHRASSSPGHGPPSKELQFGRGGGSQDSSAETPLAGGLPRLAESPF
hGcgR, sequence (P47871 26-477): as above
T1 sequence (P43220 24-463): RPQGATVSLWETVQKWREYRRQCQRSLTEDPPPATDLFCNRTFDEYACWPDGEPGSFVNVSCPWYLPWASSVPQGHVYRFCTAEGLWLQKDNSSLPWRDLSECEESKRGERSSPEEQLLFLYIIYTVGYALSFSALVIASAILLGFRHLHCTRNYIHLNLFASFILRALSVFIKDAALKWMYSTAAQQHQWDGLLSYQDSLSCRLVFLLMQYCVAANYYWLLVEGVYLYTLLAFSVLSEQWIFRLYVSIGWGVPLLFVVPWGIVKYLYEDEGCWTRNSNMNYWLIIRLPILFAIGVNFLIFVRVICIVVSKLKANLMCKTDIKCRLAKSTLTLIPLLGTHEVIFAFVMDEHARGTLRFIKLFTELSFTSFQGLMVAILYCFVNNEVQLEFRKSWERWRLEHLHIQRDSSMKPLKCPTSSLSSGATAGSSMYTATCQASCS

CC[C@H](C)[C@H](NC(=O)[C@H](Cc1ccccc1)NC(=O)[C@H](C)NC(=O)C(C)(C)NC(=O)[C@H](C)NC(=O)[C@H](C)NC(=O)[C@H](CCCCNC(=O)COCCOCCNC(=O)CC[C@H](NC(=O)CCCCCCCCCCCCCCCCC(=O)O)C(=O)O)NC(=O)[C@H](CCCN)NC(=O)[C@H](CC(=O)O)NC(=O)[C@H](CC(C)C)NC(=O)[C@](C)(CC(C)C)NC(=O)[C@@H](NC(=O)[C@H](CO)NC(=O)[C@H](Cc1ccncc1)NC(=O)[C@H](CC(=O)O)NC(=O)[C@H](CO)NC(=O)[C@@H](NC(=O)[C@](C)(Cc1ccccc1F)NC(=O)[C@@H](NC(=O)CNC(=O)[C@H](CCC(N)=O)NC(=O)C(C)(C)NC(=O)[C@@H](N)Cc1ccc(O)cc1)[C@@H](C)O)[C@@H](C)O)[C@@H](C)CC)C(=O)N[C@H](CCC(=O)O)C(=O)N[C@@](C)(Cc1ccc(O)cc1)C(=O)N[C@@H](CC(C)C)C(=O)N[C@@H](CC(C)C)C(=O)N[C@@H](CCC(=O)O)C(=O)NCC(=O)NCC(=O)N1CCC[C@H]1C(=O)N[C@@H](CO)C(=O)N[C@@H](CO)C(=O)NCC(=O)N[C@@H](CCC(=O)O)C(=O)N1CCC[C@H]1C(=O)N1CCC[C@H]1C(=O)N1CCC[C@H]1C(=O)N[C@@H](CO)C(N)=O [Example 1236] (H-Y[Aib]QGT[αMePhe(2-F)]TSD[4Pal]SI[αMeL]LD[Orn]K([AEEA-γGlu-C18 diacid])AA[Aib]AFI[dE][αMeY]LLEGGPSSGEPPPS-NH2)
EC50 ([1]; 0.1% casein, no HSA): 0.947 nM | EC50 ([2]; HEK-293 cells expressing hGLP-1R, 1% HSA, geometric mean of relative EC50): 95.8 nM | EC50 ([3]; 0.1% casein, no HSA): 0.052 nM | EC50 ([4]; 0.1% casein, no HSA): 0.304 nM | EC50 ([5]; HEK-293 cells expressing hGIPR, 1% HSA, geometric mean of relative EC50): 11.9 nM | EC50 ([6]; HEK-293 cells expressing hGcgR, 1% HSA, geometric mean of relative EC50): 502 nM

H-Y[Aib]QGTFTSDFSK[αMeL]LDKK([AEEA-AEEA-γGlu-C18 diacid])AQ[Aib]AFIEYLLEGGESSGAPPPSGS-NH2 [Example 147]
EC50 [1, 7]: 4.39 nM | EC50 [2]: 964 nM | EC50 [3, 7]: 0.343 nM | EC50 [4, 7]: 4.26 nM | EC50 [5]: 108 nM | EC50 [6]: 877 nM

H-Y[Aib]QGTFTSDFSK[αMeL]LDKK([AEEA-AEEA-γGlu-C18 diacid])AQ[Aib]AFIEYLLEGGPSSGAPPPSGS-NH2 [Example 142]
EC50 [1, 7]: 3.49 nM | EC50 [2]: 391 nM | EC50 [3, 7]: 0.216 nM | EC50 [4, 7]: 4.37 nM | EC50 [5]: 14.1 nM | EC50 [6]: 1230 nM

H-Y[Aib]QGTFTSDFSK[αMeL]LDKK([AEEA-γGlu-C18 diacid])AQ[Aib]AFIEYLIEGGESSGAPPPSGS-NH2 [Example 215]
EC50 [1, 7]: 9.77 nM | EC50 [2]: 162 nM | EC50 [3, 7]: 0.418 nM | EC50 [4, 7]: 0.803 nM | EC50 [5]: 87.3 nM | EC50 [6]: 1510 nM

H-Y[Aib]QGTFTSDFSK[αMeL]LDKK([AEEA-γGlu-C18 diacid])AQ[Aib]AFIEYLIE[Aib]GESSGAPPPSGS-NH2 [Example 216]
EC50 [1, 7]: 2.7 nM | EC50 [2]: 90.6 nM | EC50 [3, 7]: 0.0887 nM | EC50 [4, 7]: 0.52 nM | EC50 [5]: 12 nM | EC50 [6]: 895 nM

H-Y[Aib]QGTFTSDFSK[αMeL]LDKK([AEEA-γGlu-C18 diacid])AQ[Aib]AFIEYLIE[Aib]SPSSGAPPPSGS-NH2 [Example 805]
EC50 [1, 7]: 3.97 nM | EC50 [2]: 146 nM | EC50 [3, 7]: 0.0875 nM | EC50 [4, 7]: 0.715 nM | EC50 [5]: 13 nM | EC50 [6]: 1210 nM

H-Y[Aib]QGTFTSDFSK[αMeL]LDKK([AEEA-γGlu-C18 diacid])AQ[Aib]AFIEYLLEGGESSGAPPPSGS-NH2 [Example 146]
EC50 [1, 7]: 2.04 nM | EC50 [2]: 678 nM | EC50 [3, 7]: 0.362 nM | EC50 [4, 7]: 2.73 nM | EC50 [5]: 74.6 nM | EC50 [6]: 463 nM

H-Y[Aib]QGTFTSDFSK[αMeL]LDKK([AEEA-γGlu-C18 diacid])AQ[Aib]AFIEYLLEGGPSSGAPPPSEG[AEEA]-NH2 [Example 56]
EC50 [1, 7]: 2.8 nM | EC50 [2]: 167 nM | EC50 [3, 7]: 0.315 nM | EC50 [4, 7]: 4.07 nM | EC50 [5]: 30.3 nM | EC50 [6]: 265 nM

H-Y[Aib]QGTFTSDFSK[αMeL]LDKK([AEEA-γGlu-C18 diacid])AQ[Aib]AFIE[αMe4Pal]LIE[Aib]GPSSGAPPPSGS-NH2 [Example 912]
EC50 [1, 7]: 3.76 nM | EC50 [2]: 59.6 nM | EC50 [3, 7]: 0.0387 nM | EC50 [4, 7]: 0.414 nM | EC50 [5]: 6.15 nM | EC50 [6]: 955 nM

H-Y[Aib]QGTFTSDFSK[αMeL]LDKK([AEEA-γGlu-C20 diacid])AQ[Aib]AFIEWLIEGGPSSGAPPPSEG-NH2 [Example 40]
EC50 [1, 7]: 12.3 nM | EC50 [2]: 138 nM | EC50 [3, 7]: 0.139 nM | EC50 [4, 7]: 0.693 nM | EC50 [5]: 76.7 nM | EC50 [6]: 2750 nM

H-Y[Aib]QGTFTSDFSK[αMeL]LDKK([AEEA-γGlu-C20 diacid])AQ[Aib]AFIEWLLAGGPSSGEPPPSEG-NH2 [Example 20]
EC50 [1, 7]: 15.4 nM | EC50 [2]: 326 nM | EC50 [3, 7]: 0.381 nM | EC50 [4, 7]: 2.45 nM | EC50 [5]: 42.3 nM | EC50 [6]: 587 nM

H-Y[Aib]QGTFTSDFSK[αMeL]LDKK([AEEA-γGlu-C20 diacid])AQ[Aib]AFIEYLLAGGPSSGAPPPSGS-NH2 [Example 14]
EC50 [1, 7]: 7.23 nM | EC50 [2]: 232 nM | EC50 [3, 7]: 0.17 nM | EC50 [4, 7]: 1.67 nM | EC50 [5]: 34.7 nM | EC50 [6]: 1420 nM

H-Y[Aib]QGTFTSDFSK[αMeL]LDKK([AEEA-γGlu-C20 diacid])AQ[Aib]AFIEYLLAGGPSSGEPPPGGS-NH2 [Example 9]
EC50 [1, 7]: 7.19 nM | EC50 [2]: 402 nM | EC50 [3, 7]: 0.205 nM | EC50 [4, 7]: 1.61 nM | EC50 [5]: 41.8 nM | EC50 [6]: 1430 nM

H-Y[Aib]QGTFTSDFSK[αMeL]LDKK([AEEA-γGlu-C20 diacid])AQ[Aib]AFIEYLLAGGPSSGEPPPSGG-NH2 [Example 6]
EC50 [1, 7]: 6.89 nM | EC50 [2]: 446 nM | EC50 [3, 7]: 0.232 nM | EC50 [4, 7]: 1.95 nM | EC50 [5]: 46.6 nM | EC50 [6]: 1380 nM

H-Y[Aib]QGTFTSDFSK[αMeL]LDKK([AEEA-γGlu-C20 diacid])AQ[Aib]AFIEYLLEGAPSSGAPPPSEG-NH2 [Example 47]
EC50 [1, 7]: 5.61 nM | EC50 [2]: 1270 nM | EC50 [3, 7]: 0.388 nM | EC50 [4, 7]: 3.4 nM | EC50 [5]: 154 nM | EC50 [6]: 2140 nM

H-Y[Aib]QGTFTSDFSK[αMeL]LDKK([AEEA-γGlu-C20 diacid])AQ[Aib]AFIEYLLEGGPSSGAPPP[γGlu]EG-NH2 [Example 52]
EC50 [1, 7]: 5.84 nM | EC50 [2]: 1250 nM | EC50 [3, 7]: 0.449 nM | EC50 [4, 7]: 5.18 nM | EC50 [5]: 111 nM | EC50 [6]: 1740 nM

H-Y[Aib]QGTFTSDFSK[αMeL]LDKK([AEEA-γGlu-C20 diacid])AQ[Aib]AFIEYLLEGGPSSGAPPP[γGlu]GE-NH2 [Example 53]
EC50 [1, 7]: 4.19 nM | EC50 [2]: 1030 nM | EC50 [3, 7]: 0.518 nM | EC50 [4, 7]: 3.31 nM | EC50 [5]: 113 nM | EC50 [6]: 1780 nM

H-Y[Aib]QGTFTSDFSK[αMeL]LDKK([AEEA-γGlu-C20 diacid])AQ[Aib]AFIEYLLEGGPSSGEPPPEEG-NH2 [Example 35]
EC50 [1, 7]: 4.32 nM | EC50 [2]: 1130 nM | EC50 [3, 7]: 0.55 nM | EC50 [4, 7]: 3.05 nM | EC50 [5]: 194 nM | EC50 [6]: 1390 nM
